This note sets out measurements from patent US5017574A, “Novel imidazobenzodiazepines” (Roussel Uclaf, priority 1989, dated 1991).

SMILES strings stand for the structures.

Assay [1] has as its target benzodiazepine receptors. Nature of the assay: Affinity for benzodiazepine receptors: inhibition of specific 3H-flunitrazepam binding (Test 1). The settings on record: 0.6×10^-9 mol 3H-flunitrazepam; membranes from the rear portion of the rat brain; read-out: Test 1: concentration which inhibited 50% of the specific binding of 3H-labelled flunitrazepam (IC50). The protocol:
The affinity of the active ingredients for the benzodiazepine receptors was measured using a radioactively labelled (^3 H) compound, flunitrazepam, in a modified version of the method of Squires et al (Nature, 1977, Vol. 266, p. 732). The values given in Table 2 below are the concentration (mol×10^-9) of the test compound which inhibited 50% of the specific binding of 0.6×10^-9 mol of ^3 H-labelled flunitrazepam in preparation of membranes from the rear portion of the brain in rats (IC50 values).

The subject of assay [2] is benzodiazepine receptors. The assay can be described thus: In vivo binding to benzodiazepine receptors (Test 2). The settings on record: ip. The protocol: Measurement of in vivo binding to benzodiazepine receptors was carried out according to the method described by Goeders at al., Life Sciences (1985) Vol. 37, p. 345.

For the compound `CN1Cc2c(C3OCCS3)ncn2-c2cccc(C(F)(F)F)c2C1=O` (stereo not drawn) [Example 4, 5,6-dihydro-5-methyl-3-(1,3-oxathiolan-2-yl)-7-trifluoromethyl-imidazo[1,5-a][1,4]benzodiazepine-6(4H)-one], in assay [1], the IC50 stood at 10 nM. For the same compound, in assay [2], the “Test 2: ED50, in vivo binding to benzodiazepine receptors” value (“Test 2: ED50, in vivo binding” below) came out at 0.08 mg/kg.

As to `CN1Cc2c(C3SCCS3)ncn2-c2ccccc2C1=O` [Example 2, 5,6-dihydro-3-(1,3-dithiolan-2-yl)-5-methyl-imidazo[1,5-a][1,4]benzodiazepine-6(4H)-one], the IC50 in assay [1] came to 94 nM. Moreover, the “Test 2: ED50, in vivo binding” value in assay [2] stood at 7.0 mg/kg.

On to `CN1Cc2c(C3OCCS3)ncn2-c2ccccc2C1=O` (stereo not drawn) [Example 5, 5,6-dihydro-5-methyl-3-(1,3-oxathiolan-2-yl)-imidazo[1,5-a][1,4]benzodiazepine-6(4H)-one], for which the IC50 in assay [1] was found to be 339 nM. The “Test 2: ED50, in vivo binding” value in assay [2] came to 0.8 mg/kg.

With `CN1Cc2c(C3OCCS3)ncn2-c2cccc(F)c2C1=O` (stereo not drawn) [Example 6, 5,6-dihydro-7-fluoro-5-methyl-3-(1,3-oxathiolan-2-yl)-imidazo[1,5-a][1,4]benzodiazepine-6(4H)-one], in assay [1], the IC50 worked out at 36 nM. The “Test 2: ED50, in vivo binding” value in assay [2] is 0.22 mg/kg.

For the compound `CN1Cc2c(C3OCCO3)ncn2-c2cccc(C(F)(F)F)c2C1=O` [Example 3, 5,6-dihydro-3-(1,3-dioxolan-2-yl)-5-methyl-7-trifluoromethyl-imidazo[1,5-a][1,4]benzodiazepine-6(4H)-one], the IC50 in assay [1] is 73 nM. Besides, the “Test 2: ED50, in vivo binding” value in assay [2] is on record as 0.09 mg/kg.

For the compound `CN1Cc2c(C3OCCO3)ncn2-c2ccccc2C1=O` [Example 1, 5,6-dihydro-3-(1,3-dioxolan-2-yl)-5-methyl-imidazo[1,5-a][1,4]benzodiazepine-6(4H)-one], in assay [1], the IC50 amounted to 1080 nM. Also, the “Test 2: ED50, in vivo binding” value in assay [2] turned out to be 1.0 mg/kg.
